{
  "source": "ChEMBL document CHEMBL5120947",
  "about": "“General Pharmacological Activation Mechanism of K+ Channels Bypassing Channel Gates” (J Med Chem, 2022)",
  "key": {"[1]": {"molecular_target": "Potassium voltage-gated channel subfamily KQT member 2 (Homo sapiens) (UniProt O43526)", "sequence (O43526 whole entry)": "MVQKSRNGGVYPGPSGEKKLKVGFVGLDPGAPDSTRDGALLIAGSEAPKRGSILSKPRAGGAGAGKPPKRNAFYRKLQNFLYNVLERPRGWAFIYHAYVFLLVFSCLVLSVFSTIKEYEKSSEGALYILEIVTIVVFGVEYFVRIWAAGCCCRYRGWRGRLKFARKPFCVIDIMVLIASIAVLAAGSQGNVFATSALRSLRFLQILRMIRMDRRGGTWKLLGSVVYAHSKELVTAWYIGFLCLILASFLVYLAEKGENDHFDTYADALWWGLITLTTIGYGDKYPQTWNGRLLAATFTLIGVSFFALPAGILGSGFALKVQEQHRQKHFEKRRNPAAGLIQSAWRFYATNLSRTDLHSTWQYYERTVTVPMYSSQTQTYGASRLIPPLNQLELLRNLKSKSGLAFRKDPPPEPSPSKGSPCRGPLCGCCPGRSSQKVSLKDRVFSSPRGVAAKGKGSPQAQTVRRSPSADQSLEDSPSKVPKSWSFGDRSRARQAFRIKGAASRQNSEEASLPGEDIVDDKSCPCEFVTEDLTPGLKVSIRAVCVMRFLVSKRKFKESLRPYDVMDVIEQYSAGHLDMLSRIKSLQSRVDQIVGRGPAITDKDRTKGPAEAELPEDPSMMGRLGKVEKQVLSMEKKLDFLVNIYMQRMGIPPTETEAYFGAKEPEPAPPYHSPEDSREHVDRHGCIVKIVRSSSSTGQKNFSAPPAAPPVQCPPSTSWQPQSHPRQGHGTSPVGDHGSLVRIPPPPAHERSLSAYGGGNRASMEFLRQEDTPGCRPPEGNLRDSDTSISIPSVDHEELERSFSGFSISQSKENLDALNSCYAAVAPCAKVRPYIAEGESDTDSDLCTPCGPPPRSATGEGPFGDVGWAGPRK", "assay": "Agonist activity at human KCNQ2 expressed in CHO cells assessed as increase in outward current at 10 uM at 50 mV by patch clamp electrophysiology method", "type": "cell-based", "conditions": "filed as agonist"}, "[2]": {"assay": "Lipophilicity, logD of the compound", "type": "physicochemical", "conditions": "octanol/water"}, "[3]": {"molecular_target": "Potassium voltage-gated channel subfamily KQT member 5 (Homo sapiens, UniProt Q9NR82)", "sequence (Q9NR82 whole entry)": "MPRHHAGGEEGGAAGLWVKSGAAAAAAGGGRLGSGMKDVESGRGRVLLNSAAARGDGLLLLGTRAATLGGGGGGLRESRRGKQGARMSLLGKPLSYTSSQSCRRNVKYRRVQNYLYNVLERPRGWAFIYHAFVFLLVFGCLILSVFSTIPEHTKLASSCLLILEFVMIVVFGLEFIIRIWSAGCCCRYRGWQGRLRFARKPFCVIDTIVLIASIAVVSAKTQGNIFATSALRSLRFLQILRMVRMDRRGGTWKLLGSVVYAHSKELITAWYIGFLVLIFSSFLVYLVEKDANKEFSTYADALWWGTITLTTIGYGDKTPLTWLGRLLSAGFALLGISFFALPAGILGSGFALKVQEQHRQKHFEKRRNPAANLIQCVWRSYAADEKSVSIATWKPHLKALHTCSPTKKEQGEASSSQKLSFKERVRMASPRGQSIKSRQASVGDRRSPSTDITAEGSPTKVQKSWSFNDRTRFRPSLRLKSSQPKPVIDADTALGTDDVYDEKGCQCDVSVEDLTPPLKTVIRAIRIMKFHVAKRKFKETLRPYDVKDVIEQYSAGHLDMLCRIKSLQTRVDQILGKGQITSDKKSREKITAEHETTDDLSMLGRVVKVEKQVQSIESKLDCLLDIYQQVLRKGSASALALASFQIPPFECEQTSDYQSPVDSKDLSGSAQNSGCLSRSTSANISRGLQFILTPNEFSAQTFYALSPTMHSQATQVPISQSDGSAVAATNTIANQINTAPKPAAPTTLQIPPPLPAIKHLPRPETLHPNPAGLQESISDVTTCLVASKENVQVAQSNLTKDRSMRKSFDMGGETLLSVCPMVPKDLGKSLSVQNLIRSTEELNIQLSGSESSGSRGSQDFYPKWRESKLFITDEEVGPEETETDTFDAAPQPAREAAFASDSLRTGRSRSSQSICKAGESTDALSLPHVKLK", "assay": "Agonist activity at human KCNQ5 channel expressed in CHO cells assessed as increase in outward current by patch clamp electrophysiology method", "type": "cell-based"}, "[4]": {"molecular_target": "T1, Potassium voltage-gated channel subfamily KQT member 4 (Homo sapiens, UniProt P56696)", "T1 sequence (P56696 whole entry)": "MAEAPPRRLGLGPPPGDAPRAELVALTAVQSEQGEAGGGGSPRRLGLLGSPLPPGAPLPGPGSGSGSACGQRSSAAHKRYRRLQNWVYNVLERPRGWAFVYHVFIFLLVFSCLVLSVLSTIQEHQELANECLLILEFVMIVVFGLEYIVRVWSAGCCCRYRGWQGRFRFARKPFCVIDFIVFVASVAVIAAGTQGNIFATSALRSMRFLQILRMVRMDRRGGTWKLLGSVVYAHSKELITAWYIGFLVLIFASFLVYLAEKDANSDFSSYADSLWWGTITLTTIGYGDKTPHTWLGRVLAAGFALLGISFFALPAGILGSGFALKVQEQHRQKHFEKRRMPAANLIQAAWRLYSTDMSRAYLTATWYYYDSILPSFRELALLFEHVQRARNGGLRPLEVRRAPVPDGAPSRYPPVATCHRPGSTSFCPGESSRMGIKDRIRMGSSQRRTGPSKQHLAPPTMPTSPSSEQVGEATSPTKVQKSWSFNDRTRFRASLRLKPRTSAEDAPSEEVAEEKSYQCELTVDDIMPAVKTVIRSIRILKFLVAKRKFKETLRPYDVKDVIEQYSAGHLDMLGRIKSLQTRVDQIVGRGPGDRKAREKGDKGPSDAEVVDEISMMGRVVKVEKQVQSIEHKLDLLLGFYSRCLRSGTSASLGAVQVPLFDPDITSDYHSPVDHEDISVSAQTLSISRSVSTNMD", "assay": "Agonist activity at human KCNQ4 channel expressed in CHO cells assessed as increase in outward current by patch clamp electrophysiology method", "type": "cell-based"}, "[5]": {"molecular_target": "T2, Potassium channel subfamily K member 2 (Homo sapiens) (UniProt O95069)", "T2 sequence (whole entry)": "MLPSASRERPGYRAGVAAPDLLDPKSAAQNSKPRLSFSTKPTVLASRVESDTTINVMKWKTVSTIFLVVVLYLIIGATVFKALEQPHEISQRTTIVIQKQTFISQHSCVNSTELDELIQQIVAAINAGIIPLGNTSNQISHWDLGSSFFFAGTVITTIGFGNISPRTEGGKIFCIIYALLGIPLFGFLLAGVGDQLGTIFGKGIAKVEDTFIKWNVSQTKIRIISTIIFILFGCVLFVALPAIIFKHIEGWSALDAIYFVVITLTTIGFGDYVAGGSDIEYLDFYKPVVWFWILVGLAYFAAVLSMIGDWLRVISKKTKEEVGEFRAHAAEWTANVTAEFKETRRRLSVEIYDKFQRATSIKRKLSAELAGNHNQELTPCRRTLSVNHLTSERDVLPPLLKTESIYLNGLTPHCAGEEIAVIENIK", "assay": "Activation of human TREK-1 expressed in CHO cells at 10 uM in presence of ML335 by patch clamp electrophysiology method", "type": "cell-based", "conditions": "filed as activator"}},
  "note": "The source made the active and inactive calls. The rule behind the calls is not given here.",
  "data": [
    {"smiles": "O=C(Nc1ccc(Cl)nc1)c1ccc(F)cc1", "values": [
      {"measurement": "Activity", "setting": "[1]", "value": "Active"}
    ]},
    {"smiles": "Cc1ccc(CSCc2nnc(SCC(=O)Nc3ccc(Br)cc3Br)n2C)cc1", "values": [
      {"measurement": "logD", "setting": "[2]", "value": 4.79},
      {"measurement": "EC50", "setting": "[3]", "value": 4.5, "unit": "µM"},
      {"measurement": "EC50", "setting": "[4]", "value": 6.4, "unit": "µM"}
    ]},
    {"smiles": "c1ccc(-c2nnn[nH]2)c(Nc2cccc3c2CCCC3)c1", "values": [
      {"measurement": "Activity", "setting": "[5]", "value": "Active"}
    ]},
    {"smiles": "Cc1ccc(CSCc2nnc(SCC(=O)Nc3ccc(Br)cc3I)n2C)cc1", "values": [
      {"measurement": "logD", "setting": "[2]", "value": 4.66}
    ]},
    {"smiles": "Cc1ccc(CSCc2nnc(SCC(=O)Nc3ccc(Br)cc3F)n2C)cc1", "values": [
      {"measurement": "logD", "setting": "[2]", "value": 4.38}
    ]},
    {"smiles": "O=C(O)c1ccccc1Nc1ccc(CCc2ccc(Cl)c(Cl)c2)cc1", "values": [
      {"measurement": "Activity", "setting": "[5]", "value": "Active"}
    ]}
  ]
}
